In ChEMBL document CHEMBL4765227, “Hit to lead optimization of a series of N-[4-(1,3-benzothiazol-2-yl)phenyl]acetamides as monoacylglycerol lipase inhibitors with potential anticancer activity” (Eur J Med Chem, 2016):
pIC50: −log10 of the molar value. One block for each molecule: values may come before it.

Assays:
[1] = target: T1, Monoglyceride lipase (Homo sapiens, UniProt Q99685); experiment: Inhibition of human MAGL
T1 sequence (Q99685 whole entry): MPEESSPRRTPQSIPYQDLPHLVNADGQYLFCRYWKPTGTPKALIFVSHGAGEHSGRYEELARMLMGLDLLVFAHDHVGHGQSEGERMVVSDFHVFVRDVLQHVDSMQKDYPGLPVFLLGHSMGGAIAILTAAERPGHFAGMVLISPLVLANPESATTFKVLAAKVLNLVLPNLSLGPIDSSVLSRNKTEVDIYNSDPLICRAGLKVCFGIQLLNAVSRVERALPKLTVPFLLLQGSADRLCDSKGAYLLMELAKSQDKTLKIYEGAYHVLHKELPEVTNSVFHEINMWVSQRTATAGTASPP

[2] = target: T1, Monoglyceride lipase; experiment: Inhibition of human MAGL transfected in human HEK293T cells assessed as reduction in ABPP binding by competitive binding assay; format: cell-based
[3] = target: T1, Monoglyceride lipase; experiment: Inhibition of MAGL (unknown origin)
[4] = target: T1, Monoglyceride lipase; experiment: Inhibition of human MAGL using 4-Nitrophenylacetate as substrate

Compound: O=C(N1CCC(C(c2ccc3c(c2)OCO3)c2ccc3c(c2)OCO3)CC1)n1cncn1
pIC50 [1]: > 9.40

Compound: O=C(CNc1ccc([N+](=O)[O-])cc1)Nc1ccc(-c2nc3ccccc3s2)cc1
pIC50 [4]: < 4.00

Compound: COc1nn(-c2ccc(NC(=O)OCc3ccccc3)c(C)c2)c(=O)o1
pIC50 [4]: 6.37

Now from value to molecule:

pIC50 [2]: 8.23
Compound: O=C(OC(C(F)(F)F)C(F)(F)F)N1CCC(C(O)(c2ccc3c(c2)OCO3)c2ccc3c(c2)OCO3)CC1

pIC50 [3]: 4.51
Compound: CCCCNC(=O)Oc1ccc(C2=NCCS2)cc1

pIC50 [3]: 9.05
Compound: CN(C)C(=O)n1nnc(Cc2ccc(-c3ccccc3)cc2)n1

pIC50 [3]: 4.55
Compound: O=C(Nc1cccc(-c2ccccc2)c1)OC1CCCCC1
